Source: patent US12403184B2, “Compositions and methods for treating neurodegenerative disroders” (priority 2018, dated 2025)
Where no end group is shown, it is not given here.

Key:
[1] = test system: mtDNA; experiment: Measurement of mtDNA lesion by quantitative PCR; format: cell-based, mouse; conditions: HdhQ111 cells, relative to TAT
From the text: Because the movement of the polymerase on the template is blocked at a lesion, qPCR amplification is inversely proportional to the presence of DNA damage. The level of mtDNA lesion will be calculated by comparing the 10 kb mtDNA fragment amplification, as described previously. To correct for the possible variations in the rate of mtDNA replication, the amplification of 10 kb mtDNA fragment was normalized to the 91 bp small mtDNA amplicon. Specifically, Total DNA was isolated as shown above. The amplification profile consisted of a 45-s denaturation at 94° C., 22 cycles of denaturation for 15 s at 94° C., annealing/extension at 64° C. for 12 min, and a final extension at 72° C. for 10 min.

[2] = molecular target: T1, ATAD3A (Mus musculus, UniProt Q925I1); experiment: ATAD3A dimerization by western blot, Neuro2A cells; format: cell-based; conditions: Neuro2A cells exposed to 3-NP (5 mM, 7 hours), DA1 1 μM overnight
T1 construct: endogenous in cells; host or cells: Neuro2A cells
T1 sequence (Q925I1 1-591): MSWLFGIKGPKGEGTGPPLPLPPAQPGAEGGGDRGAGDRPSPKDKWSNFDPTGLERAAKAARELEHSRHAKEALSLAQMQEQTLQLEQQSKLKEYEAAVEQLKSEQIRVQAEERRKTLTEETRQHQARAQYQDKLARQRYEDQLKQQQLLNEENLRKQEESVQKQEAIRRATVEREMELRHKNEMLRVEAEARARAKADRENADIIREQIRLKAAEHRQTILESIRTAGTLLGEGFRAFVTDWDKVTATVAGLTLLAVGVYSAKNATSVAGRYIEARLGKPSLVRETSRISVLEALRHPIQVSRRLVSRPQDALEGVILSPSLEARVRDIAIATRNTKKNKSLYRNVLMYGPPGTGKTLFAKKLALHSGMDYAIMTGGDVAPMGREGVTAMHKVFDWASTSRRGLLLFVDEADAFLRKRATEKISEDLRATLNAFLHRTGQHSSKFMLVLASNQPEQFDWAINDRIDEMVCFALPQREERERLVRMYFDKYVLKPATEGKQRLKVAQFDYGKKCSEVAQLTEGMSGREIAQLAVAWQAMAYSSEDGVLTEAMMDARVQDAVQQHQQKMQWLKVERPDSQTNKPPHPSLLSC
Protocol: To analyze dimerization of ATAD3A under non-reducing conditions, the cells or tissues were harvested and lysed with total lysates buffer. An equal amount of proteins was subject to 8% SDS-PAGE analysis in the presence or absence of β-mercaptoethanol (β-ME). For in vitro BMH crosslinking, the cell lysates were incubated with 1 mM BMH at r.t. for up to 25 min and quenched with 0.1% β-ME, followed by SDS-PAGE analysis. For in-vivo crosslinking, the cells were treated with cell-permeable crosslinker BMH (1 mM) for 20 min at 37° C. After crosslinking, the cells were quenched in PBS with 0.1% β-ME. For DSP crosslinking, the cells were treated with cell-permeable crosslinker for 5 min at 37° C., followed by quenching and washing with 10 mM Glycine in PBS. For formaldehyde (FA) crosslinking, the cells were incubated with PBS buffer containing 1% FA for 20 min at r.t., and the crosslinking reaction was terminated by washing in PBS containing 100 mM glycine. The cells were then lysed and subject to 8% SDS-PAGE analysis. For DTSSP crosslinking of proteins in mitochondrial fractions, isolated mitochondria samples were suspended in the mitochondrial lysis buffer (250 mM sucrose, 20 mM HEPES-NaOH, pH 7.5, 10 mM KCl, 1.5 mM MgCl2, 1 mM EDTA, 1 mM EGTA and protease inhibitor). An equal amount of crude mitochondria was incubated at 30° C. in the presence of 0.5 mM DTSSP. […]

[3] = test system: activated microglial cells; experiment: Iba1 immunofluorescence of microglial activity in HD mouse striatum; format: in vivo
Protocol: For Iba1 immunofluorescence staining, mice were deeply anesthetized and transcardially perfused with 4% paraformaldehyde in PBS. Frozen brain sections (10 μm, coronal) were permeabilized with 0.1% Triton X-100 in TBS-T buffer followed by blocking with 5% normal goat serum. The brain sections were then incubated with anti-Iba1 antibody (1:500 dilution) for overnight at 4° C., followed by staining with Alex-488 anti-rabbit secondary antibody (1:2000 dilution). Iba1-immunopositive cells in the […] were quantitated by image J software.

Q: What does the source list for “YGRKKRRQRRRGGEDKRKT-NH2 [DA1, YGRKKRRQRRR-GG-EDKRKT-NH2]”?
A: mtDNA lesion [1]: diminished; dimerization of ATAD3A [2]: abolished; inflammatory response (Iba1-marked activated microglial cells) ([3]; HD R6/2 mouse striatum, 12 weeks old): corrected; inflammatory response (Iba1-marked activated microglial cells) ([3]; YAC128 mouse striatum, 6 months old): corrected
